Where “and” joins values, the source holds several entries; their conditions need not be identical. Identical values can stand only once.
How the values were obtained:
Format in all cases: biochemical
[1] = system: TnI; assay: Effect of trigger pH: TnI on LodeStars with ascorbate
Description: B. In order to determine the effect of trigger solution pH on a variety of test assay systems, a series of experiments were conducted varying trigger pH. […] In the tables, two pH values are listed for each data set. The first is the pH of the buffer sample added to the reaction mixture. The second is the resulting pH of the final reaction mix.

[2] = biological target: T1, HRP (Armoracia rusticana, UniProt P00433); assay: HRP model system on silica particles, with and without ascorbic acid; conditions: 150 μM Ascorbate; for RLU: replicates
T1 construct: purchased Roche Diagnostics, Indianapolis, Ind., USA
T1 sequence (P00433 31-338 limits assumed): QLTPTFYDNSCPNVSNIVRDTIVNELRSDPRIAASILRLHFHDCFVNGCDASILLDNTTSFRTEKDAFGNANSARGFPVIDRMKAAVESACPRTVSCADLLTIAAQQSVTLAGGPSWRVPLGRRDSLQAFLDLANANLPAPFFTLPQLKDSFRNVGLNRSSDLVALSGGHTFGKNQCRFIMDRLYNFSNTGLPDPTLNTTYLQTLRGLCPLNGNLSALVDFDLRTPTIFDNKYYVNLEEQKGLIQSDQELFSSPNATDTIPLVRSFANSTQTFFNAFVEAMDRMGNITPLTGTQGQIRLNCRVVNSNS
Description: In order to further investigate the effect of specific solid phase particles on the assays described herein, a comparison of a variety of particle types was conducted, including silica, polymethylmethacrylate (PMMA). Carboxyl modified PMMA particles (PolyAn GmbH, Berlin) were labeled with AK and biotin as described in Example 3, followed by coating with streptavidin. Silica particles were reacted with 3-aminopropylsiloxane in 1 mM acetic acid to provide an amine reactive group. The amine functional groups were reacted with AK-3 and biotin-LC-sulfoNHS, followed by coating with streptavidin.
Signal generation with Silica and PMMA particles. Assays using the HRP model system, as generally described in Example 1, were conducted on silica particles and PMMA particles, with and without ascorbic acid in the reaction mixture. The assays were run on a modified DxI instrument as described above. The assay conditions consisted of combining 45 μL BUFFER II (with or without ascorbic acid), 25 μL of particle suspension, and 15 μL of sample and incubating for 30 min. Then 100 μL of trigger solution A was added to the reaction vessel and the light intensity was recorded.

[3] = system: cTnI; assay: cTnI detection via heterogeneous assay
Description: This example describes a method of detecting cTnI (Cardiac Troponin I) using an AK-Abl particle prepared e.g., as set forth in Example 3 and a HRP-Ab2 conjugate prepared e.g., as set forth in Example 4 where Ab2 represents an antibody to cTnI. The effect of ascorbic acid on background signal was investigated.
HRP-Ab2 conjugate suspensions were prepared at 1.0 μg/mL and contained either 0 or 1 mM ascorbic acid. Samples consisted of human serum samples with the indicated mounts of cTnI added or no cTnI as a control. The test procedure consisted of adding 20 μL of 1.0 μg/mL HRP-Ab2 conjugate and 30 μL of MES buffer containing 1 mg/mL BSA and 1 mg/mL MIgG, pH 5.9 to the reaction vessel. Next, 25 μL of patient serum sample was added, followed by 25 μL of 1.0 mg/mL AK-Abl conjugate suspension thereby obtaining 100 μL of total volume in the reaction vessel. After 15.2 minutes, 100 μL of trigger solution A was added to the reaction vessel and the light intensity was recorded on the modified DxI instrument. Chemiluminescence intensity is expressed in Relative Light Units (RLU).

[4] = Control (7.5), S1, TnI 172 ng/ml
[5] = Control (7.5), S2, TnI 366 ng/ml
[6] = Control (7.5), S3, TnI 1368 ng/ml
[7] = Control (7.5), S4, TnI 11136 ng/ml
[8] = Control (7.5), S5, TnI 27922 ng/ml
[9] = Control (7.5), S6, TnI 10600 ng/ml
[10] = pH 6.0 (5.9), S1, TnI 172 ng/ml
[11] = pH 6.0 (5.9), S2, TnI 366 ng/ml
[12] = pH 6.0 (5.9), S3, TnI 1368 ng/ml
[13] = pH 6.0 (5.9), S4, TnI 11136 ng/ml
[14] = pH 6.0 (5.9), S5, TnI 27922 ng/ml
[15] = pH 6.0 (5.9), S6, TnI 10600 ng/ml
[16] = pH 7.0 (7.1), S1, TnI 172 ng/ml
[17] = pH 7.0 (7.1), S2, TnI 366 ng/ml
[18] = pH 7.0 (7.1), S3, TnI 1368 ng/ml
[19] = pH 7.0 (7.1), S4, TnI 11136 ng/ml
[20] = pH 7.0 (7.1), S5, TnI 27922 ng/ml
[21] = pH 7.0 (7.1), S6, TnI 10600 ng/ml
[22] = pH 8.0 (7.9), S1, TnI 172 ng/ml
[23] = pH 8.0 (7.9), S2, TnI 366 ng/ml
[24] = pH 8.0 (7.9), S3, TnI 1368 ng/ml
[25] = pH 8.0 (7.9), S4, TnI 11136 ng/ml
[26] = pH 8.0 (7.9), S5, TnI 27922 ng/ml
[27] = pH 8.0 (7.9), S6, TnI 10600 ng/ml
[28] = pH 9.0 (8.7), S1, TnI 172 ng/ml
[29] = pH 9.0 (8.7), S2, TnI 366 ng/ml
[30] = pH 9.0 (8.7), S3, TnI 1368 ng/ml
[31] = pH 9.0 (8.7), S4, TnI 11136 ng/ml
[32] = pH 9.0 (8.7), S5, TnI 27922 ng/ml
[33] = pH 9.0 (8.7), S6, TnI 10600 ng/ml
[34] = with ascorbic acid, S1, cTnI 172 pg/mL
[35] = with ascorbic acid, S2, cTnI 366 pg/mL
[36] = with ascorbic acid, S3, cTnI 1368 pg/mL
[37] = with ascorbic acid, S4, cTnI 11136 pg/mL
[38] = with ascorbic acid, S5, cTnI 27922 pg/mL
[39] = with ascorbic acid, S6, cTnI 106000 pg/mL

O=C1O[C@H]([C@@H](O)CO)C(O)=C1O [Ascorbic Acid, Ascorbic acid]
Ave RLUs ([1]; Control (7.5), S0, TnI 0 ng/ml): 543 RLU
Ave RLUs [1, 4]: 1,013 RLU
S/S0 [1, 4]: 1.9
Ave RLUs [1, 5]: 1,815 RLU
S/S0 [1, 5]: 3.3
Ave RLUs [1, 6]: 5,981 RLU
S/S0 [1, 6]: 11.0
Ave RLUs [1, 7]: 53,524 RLU
S/S0 [1, 7]: 98.6
Ave RLUs [1, 8]: 155,889 RLU
S/S0 [1, 8]: 287.3
Ave RLUs [1, 9]: 1,235,103 RLU
S/S0 [1, 9]: 2276.0
Ave RLUs ([1]; pH 6.0 (5.9), S0, TnI 0 ng/ml): 273 RLU
Ave RLUs [1, 10]: 379 RLU
S/S0 [1, 10]: 1.4
Ave RLUs [1, 11]: 600 RLU
S/S0 [1, 11]: 2.2
Ave RLUs [1, 12]: 1,452 RLU
S/S0 [1, 12]: 5.3
Ave RLUs [1, 13]: 11,579 RLU
S/S0 [1, 13]: 42.4
Ave RLUs [1, 14]: 32,519 RLU
S/S0 [1, 14]: 119.0
Ave RLUs [1, 15]: 216,379 RLU
S/S0 [1, 15]: 791.6
Ave RLUs ([1]; pH 7.0 (7.1), S0, TnI 0 ng/ml): 519 RLU
Ave RLUs [1, 16]: 1,031 RLU
S/S0 [1, 16]: 2.0
Ave RLUs [1, 17]: 1,703 RLU
S/S0 [1, 17]: 3.3
Ave RLUs [1, 18]: 5,695 RLU
S/S0 [1, 18]: 11.0
Ave RLUs [1, 19]: 57,599 RLU
S/S0 [1, 19]: 111.1
Ave RLUs [1, 20]: 145,140 RLU
S/S0 [1, 20]: 279.8
Ave RLUs [1, 21]: 938,075 RLU
S/S0 [1, 21]: 1808.6
Ave RLUs ([1]; pH 8.0 (7.9), S0, TnI 0 ng/ml): 699 RLU
Ave RLUs [1, 22]: 1,319 RLU
S/S0 [1, 22]: 1.9
Ave RLUs [1, 23]: 2,359 RLU
S/S0 [1, 23]: 3.4
Ave RLUs [1, 24]: 8,048 RLU
S/S0 [1, 24]: 11.5
Ave RLUs [1, 25]: 72,016 RLU
S/S0 [1, 25]: 103.1
Ave RLUs [1, 26]: 225,113 RLU
S/S0 [1, 26]: 322.2
Ave RLUs [1, 27]: 1,574,655 RLU
S/S0 [1, 27]: 2253.8
Ave RLUs ([1]; pH 9.0 (8.7), S0, TnI 0 ng/ml): 413 RLU
Ave RLUs [1, 28]: 716 RLU
S/S0 [1, 28]: 1.7
Ave RLUs [1, 29]: 1,097 RLU
S/S0 [1, 29]: 2.7
Ave RLUs [1, 30]: 3,999 RLU
S/S0 [1, 30]: 9.7
Ave RLUs [1, 31]: 36,424 RLU
S/S0 [1, 31]: 88.1
Ave RLUs [1, 32]: 107,020 RLU
S/S0 [1, 32]: 258.9
Ave RLUs [1, 33]: 855,956 RLU
S/S0 [1, 33]: 2070.9
Mean RLU ([2]; HRP 0 ng/ml): 263 RLU
S/S0 ([2]; HRP 0 ng/ml): 1.0
RLU ([2]; HRP 0 ng/ml): 256 RLU and 260 RLU and 272 RLU
Mean RLU ([2]; HRP 1 ng/ml): 6,988 RLU
S/S0 ([2]; HRP 1 ng/ml): 26.6
RLU ([2]; HRP 1 ng/ml): 6,712 RLU and 6,844 RLU and 7,408 RLU
Mean RLU ([2]; HRP 10 ng/ml): 309,873 RLU
S/S0 ([2]; HRP 10 ng/ml): 1178.2
RLU ([2]; HRP 10 ng/ml): 310,600 RLU and 278,320 RLU and 340,700 RLU
Mean RLU ([2]; HRP 100 ng/ml): 2,426,677 RLU
S/S0 ([2]; HRP 100 ng/ml): 9226.9
RLU ([2]; HRP 100 ng/ml): 2,306,036 RLU and 2,477,760 RLU and 2,496,236 RLU
Mean RLU ([2]; HRP 250 ng/ml): 2,533,168 RLU
S/S0 ([2]; HRP 250 ng/ml): 9631.8
RLU ([2]; HRP 250 ng/ml): 2,535,712 RLU and 2,523,068 RLU and 2,540,724 RLU
background signal ([3]; in the presence of ascorbic acid, in words): significant reduction in background signal
RLU ([3]; second column pair (with 1 mM ascorbic acid in conjugate), S0, cTnI 0 pg/mL): 422 RLU
RLU [3, 34]: 1320 RLU
S/S0 [3, 34]: 3.1
RLU [3, 35]: 2778 RLU
S/S0 [3, 35]: 6.6
RLU [3, 36]: 10254 RLU
S/S0 [3, 36]: 24.3
RLU [3, 37]: 108628 RLU
S/S0 [3, 37]: 257.4
RLU [3, 38]: 325082 RLU
S/S0 [3, 38]: 770.3
RLU [3, 39]: 2380772 RLU
S/S0 [3, 39]: 5641.6

From patent US20100273189A1, “NON SEPARATION ASSAYS WITH SELECTIVE SIGNAL INHIBITORS” (BECKMAN COULTER, INC., priority 2009, published 2010)
